{
  "source": "patent US10787457B2",
  "about": "(priority 2015, dated 2020)",
  "conditions": "mouse hepatic microsome 0.25 mg/mL; 1 μM; 37° C. 30 minutes; NADPH-generating system",
  "data": [
    {"smiles": "Cc1ccc(-c2nn(C(C)(C)C)c3ncnc(N)c23)cc1", "note": "[Compound 4 of Comparative Examples, 1-(tert-butyl)-3-(p-tolyl)pyrazolo[3,4-d]pyrimidin-4-amine]", "values": [
      {"measurement": "percentage of the remaining tested compounds (remaining %)", "result": 0, "unit": "%"}
    ]}
  ]
}
